From paper PMC12749166, “Fragment-based drug design of a bacterial kinase inhibitor capable of increasing the antibiotic sensitivity of clinical isolates” (Communications Chemistry, 2025) come the findings set out here.

Values after ≈ are worked out from the molar mass of the structure shown.

In one assay the target is T1, APH(2”)-IVa (Enterococcus casseliflavus, UniProt O68183). In words: biochemical. Conditions: Ki (µM), inhibition constant, ATP-competitive; 0-2 mM MgATP, 100 µM kanamycin A, global fitting.
T1 sequence (O68183 1-301): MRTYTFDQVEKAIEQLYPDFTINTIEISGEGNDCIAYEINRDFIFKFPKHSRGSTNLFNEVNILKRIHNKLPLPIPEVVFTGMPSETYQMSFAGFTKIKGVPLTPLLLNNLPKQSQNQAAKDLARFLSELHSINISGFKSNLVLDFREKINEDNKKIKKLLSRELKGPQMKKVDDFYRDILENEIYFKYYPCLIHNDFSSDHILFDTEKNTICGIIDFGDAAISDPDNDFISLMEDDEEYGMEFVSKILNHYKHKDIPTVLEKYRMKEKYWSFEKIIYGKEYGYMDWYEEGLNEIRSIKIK
One may read the Ki as a dissociation constant, usually derived from enzyme kinetics or from competition with a known ligand. The low end stands for a stronger hold on the target, the high end for a looser hold on the target. With `CN(C)CCNC(=O)c1cc(NC2CC2)ncc1Cl` [Compound 36-7], the Ki is 18.6 µM.

In turn, `Clc1cnc2[nH]ccc2c1-c1ccc[nH]1` [Compound 85] displayed a Ki of 1.74 µM. Still for that read-out and setting: then `CN(C)C(=O)c1c[nH]c2ncc(Cl)cc12` [Compound 82], with 19.7 µM. The same measure, in the same setting: the same measure for `O=C(O)c1c[nH]c2ncc(Cl)cc12` [Compound 79]: 27.5 µM; for `CNC(=O)c1c[nH]c2ncc(Cl)cc12` [Compound 81]: 9.47 µM.

In the case of `NC(=O)CNC(=O)c1cc(NC2CC2)ncc1Cl` [Compound 36-3], the inhibition constant Ki came out at 32.3 µM. The same measure, in the same setting: the same measure for `NC(=O)c1c[nH]c2ncc(Cl)cc12` [Compound 80]: 10.3 µM; for `O=C(NCCc1ccn(-c2ccccc2)n1)c1cc(NC2CC2)ncc1Cl` [Compound 36-9]: 13.4 µM; for `O=C(NCCc1ccccc1)c1cc(NC2CC2)ncc1Cl` [Compound 36-1]: 66.1 µM. As for `O=C(NCc1ccccc1)c1cc(NC2CC2)ncc1Cl` [Compound 36-4], the inhibition constant Ki amounted to 79.1 µM.

Compound `O=C(NCCO)c1cc(NC2CC2)ncc1Cl` [Compound 36-5] returned an inhibition constant (Ki) of 25.6 µM. Same read-out and setting: then `Clc1cnc2[nH]ccc2c1-c1ccsc1` [Compound 86], with 1.75 µM; and `O=C(NCCc1ccc(O)cc1)c1cc(NC2CC2)ncc1Cl` [Compound 36-2], with 11.9 µM; and `NNC(=O)c1cc(NC2CC2)ncc1Cl` [Compound 36-6], with 11.4 µM. For `NCCNC(=O)c1cc(NC2CC2)ncc1Cl` [Compound 36-8], the Ki was 16.3 µM. In the case of `Clc1cnc2[nH]ccc2c1-c1cn[nH]c1` [Compound 84], affinity was put at a Ki of 1.58 µM.

The next assay concerns P. aeruginosa clinical isolates. In words: MIC by broth micro-dilution. Conditions: Pseudomonas aeruginosa, P. aeruginosa C0214, aph(3')-IIb; read-out: MIC. It is filed as cell-based.
By MIC is commonly meant the smallest concentration in the dilution series that meets the test's criterion for growth inhibition. On to `C[C@@H](O)[C@H]1C(=O)N2C(C(=O)O)=C(SCCN=CN)C[C@H]12` [Imipenem], for which the MIC is > 2 µg/mL.

The same assay, now with this note: Pseudomonas aeruginosa, P. aeruginosa C0307, aph(3')-IIb; read-out: MIC.
For `C[C@@H](O)[C@H]1C(=O)N2C(C(=O)O)=C(SCCN=CN)C[C@H]12` [Imipenem], the minimum inhibitory concentration (MIC) came out at 2 µg/mL (≈ 6.68 µM).

In the next assay the target is T1, APH(2”)-IVa. In words: biochemical. Conditions: read-out: ΔTm (°C). It is filed as binding. The procedure:
Thermal shift assays were performed using an RTqPCR machine Mx3005P (Stratagene) in 96-well plates (Thermo-Fast low Profile, ThermoScientific) by mixing the protein at 5 µM, SYPRO® Orange (Sigma Aldrich) at […], and fragments at 500 µM. Fluorescence was followed with Cy3 and SYAL filters. Denaturation curves were collected using MxPro-Mx3005P v4.10 software and analyzed using the implemented version of wTSA-CRAFT[36].
As usually defined, the ΔTm is the change in melting temperature against a reference sample. For the compound `Nc1ncc(Cl)cc1S(=O)(=O)N1CCCNCC1` [Compound 17], the ΔTm at 500 µM was 1.05 °C.

As to `Nc1ncc(Cl)cc1S(=O)(=O)NC1CCCNC1` (stereo not drawn) [Compound 23], the ΔTm at 500 µM was 0.33 °C. As to `Nc1cc(N2CCC(C(=O)N3CCCCC3)CC2)c(Cl)cn1` [Compound 28], the ΔTm at 500 µM is -1.78 °C. Still for that read-out and setting: the same measure for `Nc1ccc(Br)cn1` [Compound 1]: 0.5 °C; for `Nc1cc(N2CCOC(c3ccccc3)C2)c(Cl)cn1` (stereo not drawn) [Compound 30]: -1.22 °C. The same measure, in the same setting: the same measure for `Clc1ccc(NCCc2ccccc2)nc1` [Compound 11]: 0.48 °C; for `Nc1ncc(Cl)cc1S(=O)(=O)N1CCCCC1c1ncc[nH]1` (stereo not drawn) [Compound 24]: 1.99 °C. Still for that read-out and setting: then `Cn1nccc1C1CCCN(c2cc(N)ncc2Cl)C1` (stereo not drawn) [Compound 27], with -1.45 °C; and `O=C(O)CNC(=O)Nc1ccc(Br)cn1` [Compound 8], with -0.25 °C. As for `O=C(Nc1ccc(Br)cc1)Nc1ccc(Br)cn1` [Compound 7], the ΔTm at 500 µM was -0.26 °C. Same read-out and setting: the same measure for `COC(=O)c1cncc(-c2cc[nH]n2)c1` [Compound 67]: 1.16 °C; for `O=C(Nc1ccc(Cl)cc1)Nc1ccc(Cl)cn1` [Compound 6]: 0.17 °C. Turning to `Nc1cncc(-c2cc[nH]n2)c1` [Compound 58], the ΔTm at 500 µM is 1.18 °C.

On to `CC1CCCN(S(=O)(=O)c2cc(Cl)cnc2N)C1CN` (stereo not drawn) [Compound 22], for which the ΔTm at 500 µM was determined as 0.2 °C.

`Nc1ncc(Cl)cc1S(=O)(=O)N1CCCC(N)C1` (stereo not drawn) [Compound 16]: the ΔTm at 500 µM amounted to 1.7 °C. Consider `O=C(Nc1ccc(O)cc1)Nc1ccc(F)cc1` [Compound 37], for which the shift in melting temperature (ΔTm) at 500 µM was determined as 1.17 °C. The same measure, in the same setting: the same measure for `OCc1c[nH]c2ncccc12` [Compound F355, 3-hydroxymethyl-7-azaindole]: -0.41 °C.

Turning to `c1cnc2[nH]ccc2c1` [Compound F136, 7-azaindole], the ΔTm at 500 µM was 0.06 °C. Take `O=Cc1cncc(-c2cc[nH]n2)c1` [Compound 66]: the ΔTm at 500 µM amounted to 0.54 °C. Still for that read-out and setting: then `Nc1ncc(Cl)cc1S(=O)(=O)NCCCN1CCC(O)CC1` [Compound 25], with 0.6 °C; and `CC(=O)c1cc2ccccc2oc1=O` [Compound F144], with 0.09 °C.
